Laboratory results reported in patent publication US20260285872A1, “COMPOUNDS AND METHODS FOR DEGRADING GSPT1” (priority 2023, published 2026).

System: NCI-H1155 cells
Experiment: NSCLC cell viability, CellTiter-Glo, NCI-H1155 cells
Format: cell-based
Conditions: Homo sapiens; NCI-H1155 cells, CellTiter-Glo, 72 hours of treatment; read-out: Cell viability classification (NCI-H1155)

Question: `O=C1CCC(c2nc3cc(COC(=O)Nc4cc(Cl)ccc4F)ccc3o2)C(=O)N1` (centres unmarked) [Example 224, (2-(2,6-dioxopiperidin-3-yl)benzo[d]oxazol-5-yl)methyl (5-chloro-2-fluorophenyl)carbamate] was tested. Which IC50 did it give?
Answer: 0.1 to 1 µM

Question: Which IC50 does the source give for `O=C1CCC(N2Cc3cc(C(=O)N4CC5(CCC(C(F)(F)F)CC5)C4)ccc3C2=O)C(=O)N1` (centres unmarked) [Example 251, 3-(1-oxo-5-(7-(trifluoromethyl)-2-azaspiro[3.5]nonane-2-carbonyl)isoindolin-2-yl)piperidine-2,6-dione] here?
Answer: 0.1 to 1 µM

Question: With `N#Cc1cccc2c1CN(C(=O)c1ccc3nc(C4CCC(=O)NC4=O)oc3c1)C2` (centres unmarked) [Example 173, 2-(2-(2,6-dioxopiperidin-3-yl)benzo[d]oxazole-6-carbonyl)isoindoline-4-carbonitrile] as the compound, how does the IC50 read?
Answer: 0.1 to 1 µM

Question: For `O=C1CCC(c2nc3ccc(C(=O)N4CCc5cc(Cl)ccc5C4)cc3o2)C(=O)N1` (centres unmarked) [Example 171, 3-(6-(6-chloro-1,2,3,4-tetrahydroisoquinoline-2-carbonyl)benzo[d]oxazol-2-yl)piperidine-2,6-dione], which IC50 is on record?
Answer: 0.1 to 1 µM

Question: With `C[C@H]1c2cccc(F)c2CN1C(=O)c1ccc2c(c1)CN(C1CCC(=O)NC1=O)C2=O` (stereo partly drawn) [Example 141, 3-(5-((S)-4-fluoro-1-methylisoindoline-2-carbonyl)-1-oxoisoindolin-2-yl)piperidine-2,6-dione] as the compound, how does the IC50 read?
Answer: 0.1 to 1 µM

Question: Which IC50 does the source give for `O=C1CCC(N2Cc3cc(C(=O)N4CC5(C4)CC(F)(c4ccc(F)cc4)C5)ccc3C2=O)C(=O)N1` (centres unmarked) [Example 168, 3-(5-(6-fluoro-6-(4-fluorophenyl)-2-azaspiro[3.3]heptane-2-carbonyl)-1-oxoisoindolin-2-yl)piperidine-2,6-dione] here?
Answer: 0.1 to 1 µM

Question: `O=C1CCC(N2Cc3cc(C(=O)N4CC5(CCC(F)(F)CC5)C4)ccc3C2=O)C(=O)N1` (centres unmarked) [Example 157, 3-(5-(7,7-difluoro-2-azaspiro[3.5]nonane-2-carbonyl)-1-oxoisoindolin-2-yl)piperidine-2,6-dione] was tested. Which IC50 did it give?
Answer: 0.1 to 1 µM

Question: For `O=C1CCC(N2Cc3cc(C(=O)N4Cc5cc(Cl)cc(F)c5C4)ccc3C2=O)C(=O)N1` (centres unmarked) [Example 148, 3-(5-(6-chloro-4-fluoroisoindoline-2-carbonyl)-1-oxoisoindolin-2-yl)piperidine-2,6-dione], which IC50 is on record?
Answer: 0.01 to 0.1 µM

Question: With `O=C1CCC(c2nc3cc(COC(=O)NC4CC5(C4)CC(F)(F)C5)ccc3o2)C(=O)N1` (centres unmarked) [Example 253, (2-(2,6-dioxopiperidin-3-yl)benzo[d]oxazol-5-yl)methyl (6,6-difluorospiro[3.3]heptan-2-yl)carbamate] as the compound, how does the IC50 read?
Answer: > 1 µM

Question: Which IC50 does the source give for `O=C1CCC(N2Cc3cc(C(=O)N4CCC5(CCC(F)(F)CC5)C4)ccc3C2=O)C(=O)N1` (centres unmarked) [Example 190, 3-(5-(8,8-difluoro-2-azaspiro[4.5]decane-2-carbonyl)-1-oxoisoindolin-2-yl)piperidine-2,6-dione] here?
Answer: > 1 µM

Question: `COc1ccc(C2=CC3(C2)CN(C(=O)c2ccc4c(c2)CN(C2CCC(=O)NC2=O)C4=O)C3)cc1` (centres unmarked) [Example 237, 3-(5-(6-(4-methoxyphenyl)-2-azaspiro[3.3]hept-5-ene-2-carbonyl)-1-oxoisoindolin-2-yl)piperidine-2,6-dione] was tested. Which IC50 did it give?
Answer: > 1 µM

Question: With `O=C1CCC(N2Cc3cc(C(=O)NC4CC5(C4)CC(O)(c4ccc(F)cc4)C5)ccc3C2=O)C(=O)N1` (centres unmarked) [Example 225, 2-(2,6-dioxopiperidin-3-yl)-N-(6-(4-fluorophenyl)-6-hydroxyspiro[3.3]heptan-2-yl)-1-oxoisoindoline-5-carboxamide] as the compound, how does the IC50 read?
Answer: > 1 µM

Question: `C[C@H]1CN(C(=O)c2ccc3c(c2)CN(C2CCC(=O)NC2=O)C3=O)c2cc(F)ccc21` (stereo partly drawn) [Example 132, 3-(5-((R)-6-fluoro-3-methylindoline-1-carbonyl)-1-oxoisoindolin-2-yl)piperidine-2,6-dione] was tested. Which IC50 did it give?
Answer: < 0.01 µM

Question: Which IC50 does the source give for `O=C1CCC(N2Cc3cc(C(=O)N4CC5(CCC(F)(F)C5)C4)ccc3C2=O)C(=O)N1` (centres unmarked) [Example 163, 3-(5-(6,6-difluoro-2-azaspiro[3.4]octane-2-carbonyl)-1-oxoisoindolin-2-yl)piperidine-2,6-dione] here?
Answer: 0.1 to 1 µM

Question: How did the IC50 turn out when `N#Cc1ccccc1C1CC2(C1)CN(C(=O)c1ccc3c(c1)CN(C1CCC(=O)NC1=O)C3=O)C2` (centres unmarked) [Example 239, 2-(2-(2-(2,6-dioxopiperidin-3-yl)-1-oxoisoindoline-5-carbonyl)-2-azaspiro[3.3]heptan-6-yl)benzonitrile] was run?
Answer: 0.1 to 1 µM

Question: How did the IC50 turn out when `O=C1CCC(c2nc3ccc(C(=O)N4Cc5c(F)ccc(F)c5C4)cc3o2)C(=O)N1` (centres unmarked) [Example 177, 3-(6-(4,7-difluoroisoindoline-2-carbonyl)benzo[d]oxazol-2-yl)piperidine-2,6-dione] was run?
Answer: 0.1 to 1 µM

Question: With `O=C1CCC(N2Cc3cc(C(=O)N4CC5(CCOCC5)C4)ccc3C2=O)C(=O)N1` (centres unmarked) [Example 186, 3-(1-oxo-5-(7-oxa-2-azaspiro[3.5]nonane-2-carbonyl)isoindolin-2-yl)piperidine-2,6-dione] as the compound, how does the IC50 read?
Answer: > 1 µM

Question: With `O=C1CCC(N2Cc3cc(C(=O)N4CC5(CC(C(F)(F)F)C5)C4)c(F)cc3C2=O)C(=O)N1` (centres unmarked) [Example 183, 3-(6-fluoro-1-oxo-5-(6-(trifluoromethyl)-2-azaspiro[3.3]heptane-2-carbonyl)isoindolin-2-yl)piperidine-2,6-dione] as the compound, how does the IC50 read?
Answer: 0.01 to 0.1 µM

Question: With `O=C1CCC(c2nc3cc(COC(=O)N4CC5(C4)CC(F)(F)C5)ccc3o2)C(=O)N1` (centres unmarked) [Example 262, (2-(2,6-dioxopiperidin-3-yl)benzo[d]oxazol-5-yl)methyl 6,6-difluoro-2-azaspiro[3.3]heptane-2-carboxylate] as the compound, how does the IC50 read?
Answer: > 1 µM

Question: For `C[C@@H]1c2c(F)cccc2CN1C(=O)c1ccc2nc(C3CCC(=O)NC3=O)oc2c1` (stereo partly drawn) [Example 159, 3-(6-((R)-7-fluoro-1-methylisoindoline-2-carbonyl)benzo[d]oxazol-2-yl)piperidine-2,6-dione], which IC50 is on record?
Answer: > 1 µM

Question: How did the IC50 turn out when `O=C1CCC(c2nc3ccc(C(=O)N4CC5(CCC(F)(F)CC5)C4)cc3o2)C(=O)N1` (centres unmarked) [Example 220, 3-(6-(7,7-difluoro-2-azaspiro[3.5]nonane-2-carbonyl)benzo[d]oxazol-2-yl)piperidine-2,6-dione] was run?
Answer: > 1 µM

Question: For `O=C1CCC(c2nc3ccc(C(=O)N4CCc5ccc(Cl)cc5C4)cc3o2)C(=O)N1` (centres unmarked) [Example 180, 3-(6-(7-chloro-1,2,3,4-tetrahydroisoquinoline-2-carbonyl)benzo[d]oxazol-2-yl)piperidine-2,6-dione], which IC50 is on record?
Answer: > 1 µM

Question: With `Cc1cc(F)c2c(c1)CN(C(=O)c1ccc3c(c1)CN(C1CCC(=O)NC1=O)C3=O)C2` (centres unmarked) [Example 155, 3-(5-(4-fluoro-6-methylisoindoline-2-carbonyl)-1-oxoisoindolin-2-yl)piperidine-2,6-dione] as the compound, how does the IC50 read?
Answer: < 0.01 µM

Question: `O=C1CCC(N2Cc3cc(C(=O)N4CCC5(C=C(c6ccc(F)cc6)C5)C4)ccc3C2=O)C(=O)N1` (centres unmarked) [Example 247, 3-(5-(2-(4-fluorophenyl)-6-azaspiro[3.4]oct-1-ene-6-carbonyl)-1-oxoisoindolin-2-yl)piperidine-2,6-dione] was tested. Which IC50 did it give?
Answer: 0.01 to 0.1 µM

Question: Which IC50 does the source give for `COC1(c2ccc(F)cc2)CC2(CN(C(=O)c3ccc4c(c3)CN(C3CCC(=O)NC3=O)C4=O)C2)C1` (centres unmarked) [Example 244, 3-(5-(6-(4-fluorophenyl)-6-methoxy-2-azaspiro[3.3]heptane-2-carbonyl)-1-oxoisoindolin-2-yl)piperidine-2,6-dione] here?
Answer: 0.1 to 1 µM

Question: For `O=C1CCC(c2nc3ccc(C(=O)N4CCc5c(Cl)cccc5C4)cc3o2)C(=O)N1` (centres unmarked) [Example 181, 3-(6-(5-chloro-1,2,3,4-tetrahydroisoquinoline-2-carbonyl)benzo[d]oxazol-2-yl)piperidine-2,6-dione], which IC50 is on record?
Answer: > 1 µM
